In patent US20250122225A1, “MASP-2 INHIBITORS AND METHODS OF USE” (Omeros Corporation, priority 2023, published 2025):
Counter-ions that a name gives are not always drawn.

What was measured:
MASP-2 (CCP1-CCP2-SP) = target: T1, MASP-2 (CCP1-CCP2-SP) (Homo sapiens, UniProt O00187); assay: Enzymatic assay for MASP-2 inhibitory activity (fluorogenic substrate); type: biochemical
T1 construct: 15 μL of Enzyme MASP-2 (CCP1-CCP2-SP) in Assay Buffer
In short: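 Fluorescence was normalized between no-enzyme and DMSO-only controls to derive % activity, with IC50 taken as equivalent to Ki except for tight-binding inhibitors. Reactions ran 20 min at room temperature in HEPES pH 7.4/NaCl/Tween 20 buffer, using the C2-derived fluorogenic substrate, before acetic acid stop.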

human α-thrombin = target: T2, human α-thrombin (Homo sapiens, UniProt P00734); assay: Enzymatic assay for thrombin (fluorogenic peptide substrate Boc-VPR-AMC); type: biochemical
T2 construct: enzyme (human α-thrombin (BioPharm® Lab.)) in assay buffer; purchased BioPharm® Lab
In short: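 Assay conditions kept the reaction linear in time, enzyme and substrate, so IC50 approximated Ki apart from tight- or slow-binding cases. Boc-VPR-AMC cleavage by human α-thrombin proceeded 20 min at room temperature in Hepes pH 7.4/NaCl/Tween 20 buffer, then was acid-quenched and read by fluorescence.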

T1 sequence (O00187 445-686 limits assumed): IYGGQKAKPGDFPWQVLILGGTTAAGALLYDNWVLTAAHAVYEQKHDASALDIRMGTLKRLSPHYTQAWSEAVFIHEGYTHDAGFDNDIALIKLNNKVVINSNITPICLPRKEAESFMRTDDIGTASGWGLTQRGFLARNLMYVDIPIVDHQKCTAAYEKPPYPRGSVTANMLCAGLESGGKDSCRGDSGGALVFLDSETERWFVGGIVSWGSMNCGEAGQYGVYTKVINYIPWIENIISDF
T1 sequence (O00187 287-444 partner limits assumed): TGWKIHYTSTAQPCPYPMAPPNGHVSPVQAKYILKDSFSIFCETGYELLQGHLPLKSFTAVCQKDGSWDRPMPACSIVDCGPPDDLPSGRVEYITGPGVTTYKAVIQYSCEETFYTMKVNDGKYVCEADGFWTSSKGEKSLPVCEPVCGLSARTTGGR

Compound | Ki (MASP-2 (CCP1-CCP2-SP)) [µM] | Ki (human α-thrombin) [µM]
Cc1nc(N)ccc1CNC(=O)[C@@H]1CCc2c(Cl)nc(NCc3cccc(S(C)(=O)=O)c3)c(=O)n21 [Compound 98, (S)—N-((6-amino-2-methylpyridin-3-yl)methyl)-1-chloro-3-((3-(methylsulfonyl)benzyl)amino)-4-oxo-4,6,7,8-tetrahydropyrrolo[1,2-a]pyrazine-6-carboxamide trifluoroacetate] | < 0.5 | 0.5 to 2.5
Cc1nc(N)ccc1CNC(=O)[C@@H]1CCc2cnc(NCc3cccc(S(C)(=O)=O)c3)c(=O)n21 [Compound 99, (S)—N-((6-amino-2-methylpyridin-3-yl)methyl)-3-((3-(methylsulfonyl)benzyl)amino)-4-oxo-4,6,7,8-tetrahydropyrrolo[1,2-a]pyrazine-6-carboxamide trifluoroacetate] | < 0.5 | < 0.5
O=C(NCc1cc2cnccc2[nH]1)[C@@H]1CCc2c(Cl)nc(NC3CCC3)c(=O)n21 [Compound 100, (S)—N-((1H-pyrrolo[3,2-c]pyridin-2-yl)methyl)-1-chloro-3-(cyclobutylamino)-4-oxo-4,6,7,8-tetrahydropyrrolo[1,2-a]pyrazine-6-carboxamide trifluoroacetate] | < 0.5 | > 25
O=C(NCc1cc2cnccc2[nH]1)[C@@H]1CCc2c(Cl)nc(NCC3CCOCC3)c(=O)n21 [Compound 101, trifluoroacetate] | < 0.5 | > 25
O=C(NCc1cc2cnccc2[nH]1)[C@@H]1CCc2c(Cl)nc(NC3(c4ccccc4)CC3)c(=O)n21 [Compound 106, (S)-N-((1H-pyrrolo[3,2-c]pyridin-2-yl)methyl)-1-chloro-4-oxo-3-((1-phenylcyclopropyl)amino)-4,6,7,8-tetrahydropyrrolo[1,2-a]pyrazine-6-carboxamide] | < 0.5 | 2.5 to 10
O=C(NCc1cc(Cl)ccc1-n1cnnn1)[C@@H]1CCc2c(Cl)nc(NCc3ccccc3)c(=O)n21 [Compound 107, (S)-3-(benzylamino)-1-chloro-N-(5-chloro-2-(1H-tetrazol-1-yl)benzyl)-4-oxo-4,6,7,8-tetrahydropyrrolo[1,2-a]pyrazine-6-carboxamide] | 0.5 to 2.5 | < 0.5
Cc1cc(C)cc(CNc2ncc3n(c2=O)[C@H](C(=O)NCc2cnc4c(c2)CNC4)CC3)c1 [Compound 108, (S)—N-((6,7-dihydro-5H-pyrrolo[3,4-b]pyridin-3-yl)methyl)-3-((3,5-dimethylbenzyl)amino)-4-oxo-4,6,7,8-tetrahydropyrrolo[1,2-a]pyrazine-6-carboxamide] | < 0.5 | 10 to 25
Cc1cc(C)cc(CNc2ncc3n(c2=O)[C@H](C(=O)NCc2ccc(CN)nc2)CC3)c1 [Compound 109, (S)-N-((6-(aminomethyl)pyridin-3-yl)methyl)-3-((3,5-dimethylbenzyl)amino)-4-oxo-4,6,7,8-tetrahydropyrrolo[1,2-a]pyrazine-6-carboxamide trifluoroacetate] | < 0.5 | 2.5 to 10
Cc1cccc(C2(Nc3nc(Cl)c4n(c3=O)[C@H](C(=O)NCc3cc5cnccc5[nH]3)CC4)CC2)c1 [Compound 110, (S)—N-((1H-pyrrolo[3,2-c]pyridin-2-yl)methyl)-1-chloro-4-oxo-3-((1-(m-tolyl)cyclopropyl)amino)-4,6,7,8-tetrahydropyrrolo[1,2-a]pyrazine-6-carboxamide trifluoroacetate] | < 0.5 | 2.5 to 10
O=C(NCc1cc2cnccc2[nH]1)[C@@H]1CCc2c(Cl)nc(NCC3CCCCC3)c(=O)n21 [Compound 112, (S)-N-((1H-pyrrolo[3,2-c]pyridin-2-yl)methyl)-1-chloro-3-((cyclohexylmethyl)amino)-4-oxo-4,6,7,8-tetrahydropyrrolo[1,2-alpyrazine-6-carboxamide trifluoroacetate] | < 0.5 | > 25
O=C(NCc1cc2cnccc2[nH]1)[C@@H]1CCc2cnc(NCC3CCCCC3)c(=O)n21 [Compound 113, (S)-N-((1H-pyrrolo[3,2-c]pyridin-2-yl)methyl)-3-((cyclohexylmethyl)amino)-4-oxo-4,6,7,8-tetrahydropyrrolo[1,2-alpyrazine-6-carboxamide trifluoroacetate] | < 0.5 | 2.5 to 10
Cc1cccc(CNc2nc(Cl)c3n(c2=O)[C@H](C(=O)NCc2cc4cnccc4[nH]2)CC3)c1 [Compound 114, (S)-N-((1H-pyrrolo[3,2-c]pyridin-2-yl)methyl)-1-chloro-3-((3-methylbenzyl)amino)-4-oxo-4,6,7,8-tetrahydropyrrolo[1,2-a]pyrazine-6-carboxamide trifluoroacetate] | < 0.5 | 2.5 to 10
Cc1nc(N)ccc1CNC(=O)[C@@H]1CCc2cnc(NCC3CCOCC3)c(=O)n21 [Compound 116, (S)—N-((6-amino-2-methylpyridin-3-yl)methyl)-4-oxo-3-(((tetrahydro-2H-pyran-4-yl)methyl)amino)-4,6,7,8-tetrahydropyrrolo[1,2-a]pyrazine-6-carboxamide] | < 0.5 | 0.5 to 2.5
Cc1nc(N)ccc1CNC(=O)[C@@H]1CCc2c(Cl)nc(NCC3CCOC3)c(=O)n21 (stereo partly drawn) [Compound 118, (6S)—N-((6-amino-2-methylpyridin-3-yl)methyl)-1-chloro-4-oxo-3-(((tetrahydrofuran-3-yl)methyl)amino)-4,6,7,8-tetrahydropyrrolo[1,2-a]pyrazine-6-carboxamide] | < 0.5 | 10 to 25
O=C(NCc1cc2c(s1)CNC2)[C@@H]1CCc2cnc(N3CC(c4ccccc4)C3)c(=O)n21 [Compound 119, (S)—N-((5,6-dihydro-4H-thieno[2,3-c]pyrrol-2-yl)methyl)-4-oxo-3-(3-phenylazetidin-1-yl)-4,6,7,8-tetrahydropyrrolo[1,2-a]pyrazine-6-carboxamide] | 2.5 to 10 | > 25
Cc1cc(C)cc(CNc2ncc3n(c2=O)[C@H](C(=O)NCc2ccc(N)nc2C)CC32CC2)c1 [Compound 122, (S)—N-((6-amino-2-methylpyridin-3-yl)methyl)-3′-((3,5-dimethylbenzyl)amino)-4′-oxo-6′,7′-dihydro-4′H-spiro[cyclopropane-1,8′-pyrrolo[1,2-a]pyrazine]-6′-carboxamide trifluoroacetate] | < 0.5 | < 0.5

The remaining lines, values ahead:

Ki (MASP-2 (CCP1-CCP2-SP)) [µM] | Ki (human α-thrombin) [µM] | Compound
< 0.5 | 0.5 to 2.5 | Cc1cc(C)cc(CNc2ncc3n(c2=O)[C@H](C(=O)NCc2cc4cnccc4[nH]2)CC3)c1 [Compound 97, (S)—N-((1H-pyrrolo[3,2-c]pyridin-2-yl)methyl)-3-((3,5-dimethylbenzyl)amino)-4-oxo-4,6,7,8-tetrahydropyrrolo[1,2-a]pyrazine-6-carboxamide trifluoroacetate]
< 0.5 | 0.5 to 2.5 | O=C(NCc1cc2cnccc2[nH]1)[C@@H]1CCc2cnc(NCc3ccccc3)c(=O)n21 [Compound 102, (S)—N-((1H-pyrrolo[3,2-c]pyridin-2-yl)methyl)-3-(benzylamino)-4-oxo-4,6,7,8-tetrahydropyrrolo[1,2-a]pyrazine-6-carboxamide]
< 0.5 | > 25 | Cc1cc2[nH]c(CNC(=O)[C@@H]3CCc4cnc(NCc5ccccc5)c(=O)n43)cc2cn1 [Compound 103, (S)-3-(benzylamino)-N-((6-methyl-1H-pyrrolo[3,2-c]pyridin-2-yl)methyl)-4-oxo-4,6,7,8-tetrahydropyrrolo[1,2-a]pyrazine-6-carboxamide]
< 0.5 | < 0.5 | Cc1nc(N)ccc1CNC(=O)[C@@H]1CCc2cnc(NCc3ccccc3)c(=O)n21 [Compound 104, (S)-N-((6-amino-2-methylpyridin-3-yl)methyl)-3-(benzylamino)-4-oxo-4,6,7,8-tetrahydropyrrolo[1,2-a]pyrazine-6-carboxamide]
< 0.5 | 10 to 25 | O=C(NCc1cc2cnccc2[nH]1)[C@@H]1CCc2c(Cl)nc(NCc3ccccc3)c(=O)n21 [Compound 105, (S)—N-((1H-pyrrolo[3,2-c]pyridin-2-yl)methyl)-3-(benzylamino)-1-chloro-4-oxo-4,6,7,8-tetrahydropyrrolo[1,2-a]pyrazine-6-carboxamide]
< 0.5 | 2.5 to 10 | Cc1cccc(C2(Nc3ncc4n(c3=O)[C@H](C(=O)NCc3cc5cnccc5[nH]3)CC4)CC2)c1 [Compound 111, (S)—N-((1H-pyrrolo[3,2-c]pyridin-2-yl)methyl)-4-oxo-3-((1-(m-tolyl)cyclopropyl)amino)-4,6,7,8-tetrahydropyrrolo[1,2-a]pyrazine-6-carboxamide trifluoroacetate]
< 0.5 | 0.5 to 2.5 | Cc1cccc(CNc2ncc3n(c2=O)[C@H](C(=O)NCc2cc4cnccc4[nH]2)CC3)c1 [Compound 115, (S)-N-((1H-pyrrolo[3,2-c]pyridin-2-yl)methyl)-3-((3-methylbenzyl)amino)-4-oxo-4,6,7,8-tetrahydropyrrolo[1,2-a]pyrazine-6-carboxamide trifluoroacetate]
< 0.5 | 2.5 to 10 | O=C(NCc1cc2cnccc2[nH]1)[C@@H]1CCc2cnc(NCc3cccc(C(F)(F)F)c3)c(=O)n21 [Compound 117, (S)-N-((1H-pyrrolo[3,2-c]pyridin-2-yl)methyl)-4-oxo-3-((3-(trifluoromethyl)benzyl)amino)-4,6,7,8-tetrahydropyrrolo[1,2-a]pyrazine-6-carboxamide trifluoroacetate]
< 0.5 | 10 to 25 | N#Cc1nc(NCc2ccccc2)c(=O)n2c1CC[C@H]2C(=O)NCc1cc2cnccc2[nH]1 [Compound 121, (S)—N-((1H-pyrrolo[3,2-c]pyridin-2-yl)methyl)-3-(benzylamino)-1-cyano-4-oxo-4,6,7,8-tetrahydropyrrolo[1,2-a]pyrazine-6-carboxamide trifluoroacetate]
